Test results from patent USRE46943E1, “Radioprotector compounds and methods” (PETER MACCALLUM CANCER INSTITUTE, priority 2010, dated 2018).

Columns and labels:
[1] = system: transformed human keratinocyte cell line (FEP 1811); test: Clonogenic survival cell culture assay for cytotoxicity; type: cell-based; settings: Homo sapiens, Keratinocyte, light or radiation study; un-irradiated keratinocytes, one hour drug exposure, colonies counted after eight days; read-out: C50 (concentration of radioprotector that results in 50% clonogenic survival)
Experimental: • i. […] In appropriate cases, tautomers are drawn to illustrate potential hydrogen-bond donating configurations into the minor groove of DNA. • ii. 2-Amino-4-(5′-(4″-methylpiperazin-1″-yl)benzimidazol-2′-yl)aniline was prepared by hydrogenation of 4-(5′-(4″-methylpiperazin-1″-yl)benzimidazol-2′-yl)-2-nitroaniline, using a modification of the method of Kelly et al, Aust. […] 2-Amino-4-(5′-(piperidin-1″-yl)benzimidazol-2′-yl)aniline was prepared by hydrogenation of 2-nitro-4-(5′-(piperidin-1″-yl)benzimidazol-2′-yl)aniline, using a modification of the method of Kelly et al, Aust. […] Ethyl 4-amino-3-nitrobenzenecarboximidate hydrochloride was prepared by reaction of 4-amino-3-nitrobenzonitrile with dry HCl gas in ethanol, using the method of Kelly et al, Aust. […] 5-(4′-Methylpiperazin-1′-yl)-2-nitroaniline was prepared using a modification of the method of Kelly et al, Aust. […] The following chemicals were obtained from the chemical suppliers indicated: 2-furaldehyde (Aldrich), 2-pyridinecarboxaldehyde (Aldrich), 3-fluoropyridine-2-carbaldehyde (Maybridge), 3-trifluoromethylpyridine-2-carboxaldehyde (Apollo Scientific), 6-methyl-2-pyridinecarboxaldehyde (Matrix Scientific), 5-methylpyridine-2-carbonitrile (Apollo Scientific), 4-methyl-2-pyridinecarbonitrile (Aldrich), 4-chloro-2-pyridinecarbonitrile (Aldrich), 4-methoxypicolinonitrile (Combi-Blocks), pyrazinecarbonitrile (Aldrich), 2-quinolinecarbonitrile (Aldrich), 3-isoquinolinecarbonitrile (Aldrich), 1-isoquinolinecarboxylic acid (Aldrich), indazole-3-carboxylic acid (Aldrich), 2-hydroxynicotinic acid (Aldrich), 4-hydroxypiperidine (Aldrich), 1-methylhomopiperazine (Aldrich), 3-hydroxypiperidine (Aldrich), 4-(N-BOC-amino)piperidine (Aldrich), 4-methoxypiperidine (Acros), 4-methyl-3-nitrobenzonitrile (Aldrich), 5-chloro-2-nitroaniline (Aldrich), 2-cyanopyridine (Aldrich), methyl 4-amino-2-methoxybenzoic acid (Aldrich), 4-(trifluoromethyl)-2-pyridinecarbonitrile (Matrix Scientific), cis-2,6-dimethylmorphoiline (Acros), 5-(trifluoromethyl)-2-pyridinecarbonitrile (Advanced Chemical Intermediates) and 5-fluoro-2-pyridinecarbonitrile (Advanced Chemical Intermediates). • ix. […] Melting points were determined using an Electrothermal melting point apparatus, and are uncorrected. […] The abbreviations s for singlet, d for doublet, t for triplet, q for quartet, br for broad and m for muitiplet were used in the assignments of multiplicity. A value approximating the centre of a multiplet is quoted. […] The addition of a few drops of acetic acid to methanol-d4 solutions was used to enhance solubility for the acquisition of ^13C nmr spectra. Mass spectra were recorded on a Micromass Quattro II mass spectrometer and accurate mass analyses were carried out by the School of Chemistry at the University of Melbourne on a Finnigan LTQ-FT model high resolution mass spectrometer. Thin layer chromatography (TLC) was carried out using Merck silica gel 60 F254 aluminium sheets or Merck neutral aluminium oxide 150 F254 sheets. Flash column chromatography was carried out using Ajax silica gel 230-400 mesh. • xi. […] The details are described in detail in Martin et al (4) (the disclosure of which is included herein in its entirety by way of reference), but briefly, mid-log phase monolayer cultures are incubated with various concentrations of the test drugs for one hour, after which the monolayers are washed and dispersed into single cell suspensions using pronase, and finally appropriate numbers of cells are dispensed into Petri dishes. Colonies are counted after eight days incubation. […] The irradiation (with a dose rate of 0.6 Gy per minute) is started 30 minutes after addition of the test drug. After completion of irradiation, incubation of cultures is continued until the total time of exposure to the drug reaches 60 minutes. Cultures are then washed and plated for clonogenic survival as described for the cytotoxicity experiments.

[2] = system: transformed human keratinocyte cell line (FEP 1811); test: Clonogenic survival cell culture assay for radioprotective activity (12 Gy 137Cs gamma irradiation); type: cell-based; settings: 12 Gy; for DMF10 (dose modification factor at a concentration of 10 microM of radioprotector): 10 microM radioprotector; for DMFm (dose modification factor at maximum protection): DMF=Dp/Dc at survival level Sm; for PF (protection factor = Sm/So): survival at maximum protection vs irradiation only
Description: PF is defined as a ratio of survival at maximum protection Sm and survival after irradiation only So: PF=Sm/So. DMF is defined as a ratio of doses that result in survival level of Sm in the presence Dp and the absence Dc of radioprotector: DMF=Dp/Dc. DMF10 is define in a similar way except that instead of Sm a survival at 10 microM of radioprotector is used.
PF (Protection Factor) is defined as a ratio of survival at maximum protection Sm and survival after irradiation only So:PF=Sm/So. DMF (Dose Modification Factor) is defined as a ratio of doses that result in survival level of Sm in the presence (Dp) and the absence (Dc) of radioprotector: DMF=Dp/Dc. DMF10 is defined in a similar way except that instead of Sm a survival at 10 microM of radioprotector is used.
• i. […] In appropriate cases, tautomers are drawn to illustrate potential hydrogen-bond donating configurations into the minor groove of DNA. • ii. 2-Amino-4-(5′-(4″-methylpiperazin-1″-yl)benzimidazol-2′-yl)aniline was prepared by hydrogenation of 4-(5′-(4″-methylpiperazin-1″-yl)benzimidazol-2′-yl)-2-nitroaniline, using a modification of the method of Kelly et al, Aust. […] 2-Amino-4-(5′-(piperidin-1″-yl)benzimidazol-2′-yl)aniline was prepared by hydrogenation of 2-nitro-4-(5′-(piperidin-1″-yl)benzimidazol-2′-yl)aniline, using a modification of the method of Kelly et al, Aust. […] Ethyl 4-amino-3-nitrobenzenecarboximidate hydrochloride was prepared by reaction of 4-amino-3-nitrobenzonitrile with dry HCl gas in ethanol, using the method of Kelly et al, Aust. […] 5-(4′-Methylpiperazin-1′-yl)-2-nitroaniline was prepared using a modification of the method of Kelly et al, Aust. […] The following chemicals were obtained from the chemical suppliers indicated: 2-furaldehyde (Aldrich), 2-pyridinecarboxaldehyde (Aldrich), 3-fluoropyridine-2-carbaldehyde (Maybridge), 3-trifluoromethylpyridine-2-carboxaldehyde (Apollo Scientific), 6-methyl-2-pyridinecarboxaldehyde (Matrix Scientific), 5-methylpyridine-2-carbonitrile (Apollo Scientific), 4-methyl-2-pyridinecarbonitrile (Aldrich), 4-chloro-2-pyridinecarbonitrile (Aldrich), 4-methoxypicolinonitrile (Combi-Blocks), pyrazinecarbonitrile (Aldrich), 2-quinolinecarbonitrile (Aldrich), 3-isoquinolinecarbonitrile (Aldrich), 1-isoquinolinecarboxylic acid (Aldrich), indazole-3-carboxylic acid (Aldrich), 2-hydroxynicotinic acid (Aldrich), 4-hydroxypiperidine (Aldrich), 1-methylhomopiperazine (Aldrich), 3-hydroxypiperidine (Aldrich), 4-(N-BOC-amino)piperidine (Aldrich), 4-methoxypiperidine (Acros), 4-methyl-3-nitrobenzonitrile (Aldrich), 5-chloro-2-nitroaniline (Aldrich), 2-cyanopyridine (Aldrich), methyl 4-amino-2-methoxybenzoic acid (Aldrich), 4-(trifluoromethyl)-2-pyridinecarbonitrile (Matrix Scientific), cis-2,6-dimethylmorphoiline (Acros), 5-(trifluoromethyl)-2-pyridinecarbonitrile (Advanced Chemical Intermediates) and 5-fluoro-2-pyridinecarbonitrile (Advanced Chemical Intermediates). • ix. […] Melting points were determined using an Electrothermal melting point apparatus, and are uncorrected. […] The abbreviations s for singlet, d for doublet, t for triplet, q for quartet, br for broad and m for muitiplet were used in the assignments of multiplicity. A value approximating the centre of a multiplet is quoted. […] The addition of a few drops of acetic acid to methanol-d4 solutions was used to enhance solubility for the acquisition of ^13C nmr spectra. Mass spectra were recorded on a Micromass Quattro II mass spectrometer and accurate mass analyses were carried out by the School of Chemistry at the University of Melbourne on a Finnigan LTQ-FT model high resolution mass spectrometer. Thin layer chromatography (TLC) was carried out using Merck silica gel 60 F254 aluminium sheets or Merck neutral aluminium oxide 150 F254 sheets. Flash column chromatography was carried out using Ajax silica gel 230-400 mesh. • xi.

| melting point | SMILES | IC50 [1] | DMF10 (dose modification factor at a concentration of 10 microM of radioprotector) [2] | DMFm (dose modification factor at maximum protection) [2] | PF (protection factor = Sm/So) [2] |
| --- | --- | --- | --- | --- | --- |
| 175 °C (dec.) | CN1CCN(c2ccc3nc(-c4ccc5nc(-c6cnccn6)[nH]c5c4)[nH]c3c2)CC1 [Example 12, 2-(5′-(5″-(4′″-Methylpiperazin-1′″-yl)benzimidazol-2″-yl)benzimidazol-2′-yl)pyrazine] | 54.2 µM | 1.15 | 1.29 | 6.5 |
| 224 to 229 °C | CN1CCN(c2ccc3nc(-c4ccc5nc(-c6cc7ccccc7cn6)[nH]c5c4)[nH]c3c2)CC1 [Example 14, 3-(5′-(5″-(4′″-Methylpiperazin-1′″-yl)benzimidazol-2″-yl)benzimidazol-2′-yl)isoquinoline] | 26 µM | 2.34 | 2.45 | 25.1 |
| 214 to 217 °C | CN1CCN(c2ccc3nc(-c4ccc5nc(-c6nccc7ccccc67)[nH]c5c4)[nH]c3c2)CC1 [Example 15, 1-(5′-(5″-(4′″-Methylpiperazin-1′″-yl)benzimidazol-2″-yl)benzimidazol-2′-yl)isoquinoline] | 26.9 µM | 1.70 | 1.85 | 36.9 |
| 235 °C (dec.) | CN1CCN(c2ccc3nc(-c4ccc5nc(-c6n[nH]c7ccccc67)[nH]c5c4)[nH]c3c2)CC1 [Example 16, 3-(5′-(5″-(4′″-Methylpiperazin-1′″-yl)benzimidazol-2″-yl)benzimidazol-2′-yl)indazole] | 40.9 µM | 1.78 | 2.16 | 18.3 |
| 244 to 248 °C | CN1CCN(c2ccc3nc(-c4ccc5nc(-c6ccc[nH]c6=O)[nH]c5c4)[nH]c3c2)CC1 [Example 18, 3-(5′-(5″-(4′″-Methylpiperazin-1′″-yl)benzimidazol-2″-yl)benzimidazol-2′-yl)pyridin-2(1H)-one] | 66.8 µM | 1.00 | 1.01 | 1.1 |
| 202 °C (dec.) | c1ccc2cc(-c3nc4ccc(-c5nc6ccc(N7CCOCC7)cc6[nH]5)cc4[nH]3)ncc2c1 [Example 20, 3-(5′-(5″-Morpholinobenzimidazol-2″-yl)benzimidazol-2′-yl)isoquinoline] | 172 µM | 1.52 | 1.57 | 11.4 |
| 214 to 230 °C | Cc1ccnc(-c2nc3ccc(-c4nc5ccc(N6CCOCC6)cc5[nH]4)cc3[nH]2)c1 [Example 21, 2-(5′-(5″-Morpholinobenzimidazol-2″-yl)benzimidazol-2′-yl)-4-methylpyridine] | 213 µM | 1.47 | 1.77 | 18.2 |
| 196 to 203 °C | c1ccc(-c2nc3ccc(-c4nc5ccc(N6CCCCC6)cc5[nH]4)cc3[nH]2)nc1 [Example 24, 2-(5′-(5″-(Piperidin-1′″-yl)benzimidazol-2″-yl)benzimidazol-2′-yl)pyridine] | 24 µM | 1.35 | 1.42 | 7.5 |

| SMILES | melting point | IC50 [1] | DMF10 (dose modification factor at a concentration of 10 microM of radioprotector) [2] | DMFm (dose modification factor at maximum protection) [2] | PF (protection factor = Sm/So) [2] |
| --- | --- | --- | --- | --- | --- |
| OC1CCN(c2ccc3nc(-c4ccc5nc(-c6ccccn6)[nH]c5c4)[nH]c3c2)CC1 [Example 22, 2-(5′-(5″-(4′″-Hydroxypiperidin-1′″-yl)benzimidazol-2″-yl)benzimidazol-2′-yl)pyridine] | 226 to 229 °C | 266 µM | 1.47 | 2.20 | 21.3 |
| CN1CCCN(c2ccc3nc(-c4ccc5nc(-c6ccccn6)[nH]c5c4)[nH]c3c2)CC1 [Example 25, 2-(5′-(5″-(4′″-Methyl-1′″,4′″-diazepan-1′″-yl)benzimidazol-2″-yl)benzimidazol-2′-yl)pyridine] | 185 °C (dec.) | 123 µM | 1.77 | 2.14 | 16.7 |
| OC1CCCN(c2ccc3nc(-c4ccc5nc(-c6ccccn6)[nH]c5c4)[nH]c3c2)C1 (stereo not shown) [Example 26, 2-(5′-(5″-(3′″-Hydroxypiperidin-1′″-yl)benzimidazol-2″-yl)benzimidazol-2′-yl)pyridine] | 278 to 282 °C | 77.9 µM | 1.33 | 1.90 | 14.7 |
